Reference: paper PMC9816206 (Archives of Toxicology, 2022)

What was measured:
HeLa H2B-GFP cells [1] = experiment: Cytokinesis-block micronucleus (CBMN) assay, HeLa H2B-GFP cells cultured alone; format: cell-based, human; settings: lasiocarpine 10 µM, riddelliine 100 µM, europine 320 µM; 28 h; vs solvent control (DMSO); n = 3
Method: (§1) The study of genomic damage was performed in a six-well plate in which one well consisted of only HepG2 cells, one well of only HeLa H2B-GFP cells and further wells containing both cell types in co-culture. To achieve this, 190, 000 of HeLa H2B-GFP cells per 3ml, 150,000 of HepG2 cells per 3ml and 40,000 HeLa H2B-GFP plus 150,000 HepG2 for the co-culture per 3ml were seeded and incubated overnight. As culture medium, the HepG2 cell medium was used for all cells. […] At this point, slides were coded and for each test sample micronuclei were scored in 1000 binucleated HeLa H2B-GFP cells in the co-culture and HeLa H2B-GFP cells, and in 1000 binucleated HepG2 cells in the HepG2 cell culture, at 400-fold magnification with an Eclipse 55i fluorescence microscope using a fluorescein isothiocyanate (FITC) filter (Nikon GmbH, Japan). The numbers of mononucleated cells (MN), binucleated cells (BN), trinucleated cells (TriN), and tetranucleated cells (TetraN) in 1000 cells were also scored. The cytokinesis-block proliferation index (CBPI) was calculated from that as a criterion for determining the cytotoxic effect using the following formula: CBPI=1×MN+2×BN+3×TriN+4×TetraN/MN+BN+TriN+TetraN.

[2] = test system: HeLa H2B-GFP cells co-cultured with HepG2 cells; experiment: Cytokinesis-block micronucleus (CBMN) assay, HeLa H2B-GFP cells scored in co-culture with HepG2; format: cell-based, human; settings: lasiocarpine 10 µM, riddelliine 100 µM, europine 320 µM; 28 h; vs solvent control (DMSO); n = 3
Method: as §1

HepG2 cells [3] = experiment: Analysis of mitotic figures, HepG2 cells cultured alone; format: cell-based, human; settings: 28 h; Las 10 µM, Rid 100 µM, Ep 160 µM; vs DMSO solvent control
Method: (§2) The characterization of mitotic cells in fixed cell preparations was performed as described in Baudoin and Cimini [(2018]). […] Thereafter, cells were harvested and the microscopic slides prepared as described for micronucleus analysis. The mitotic index (MI; % cells in mitosis) was assessed by counting and adding up the number of cells in the mitotic stages prophase, metaphase, anaphase and telophase in 1000 cells.
(§3) Disturbed mitoses were defined as mitotic figures deviating from the typical appearance of mitoses and were assessed in 300 mitotic cells per slide. We classified the mitotic disturbances into the following categories (Figs. 2, 3):
(§4) Metaphase: no metaphase plate arrangement, non-congression of individual chromosomes to the metaphase plate, multipolar (tripolar and more than tripolar) arrangement of chromosomes and elongated chromosomes/chromatids.
(§5) Anaphase: bridges, lagging chromosome(s), combination of bridges and lagging chromosome, and multipolar (tripolar and more than tripolar) arrangement of chromosomes.
(§6) Telophase: same analysis as for anaphase cells.
(§7) If a cell harboured more than one type of disturbance, it was added to each category (e.g. multipolar, lagging chromosome(s) and bridges).

DNA [4] = test system: DNA; design: method as in Hadi et al. [2021]; settings: ref Hadi et al. [2021]; cited from earlier work
HeLa H2B-GFP cells [5] = experiment: Analysis of mitotic figures, HeLa H2B-GFP cells cultured alone; format: cell-based, human; settings: 28 h; Las 10 µM, Rid 100 µM, Ep 160 µM; vs DMSO solvent control
Method: as §2, §3, §4, §5, §6, §7

HepG2 cells [6] = experiment: Cytokinesis-block micronucleus (CBMN) assay, HepG2 cells cultured alone; format: cell-based, human; settings: lasiocarpine 10 µM, riddelliine 100 µM, europine 320 µM; 28 h; vs solvent control (DMSO); n = 3
Method: as §1

[7] = test system: HeLa H2B-GFP cells co-cultured with HepG2 cells; experiment: Analysis of mitotic figures, HeLa H2B-GFP cells of the co-culture; format: cell-based, human; settings: for mitotic index in co-culture / arrest in metaphase of mitosis (detectable as elevated mitotic index): 28 h, Las 10 µM, Rid 100 µM, Ep 160 µM; for mitotic index in co-culture: vs DMSO solvent control; for arrest in metaphase of mitosis (detectable as elevated mitotic index): vincristine 10 ng/ml (positive control)
Method: as §2, §3, §4, §5, §6, §7

[8] = test system: cell cycle regulation and DNA damage repair; settings: transcriptomics approach; ref Abdelfatah et al. [2022]; cited from earlier work
MRP2 efflux transporter = target: T1, MRP2 efflux transporter (Homo sapiens, UniProt Q92887); experiment: MRP2 efflux transporter activity, intracellular calcein fluorescence retention; format: cell-based; settings: HepG2 cells; calcein substrate; benzbromarone 10 µM; data not shown
T1 construct: endogenous in cells; host or cells: HepG2

[9] = test system: HeLa H2B-GFP cells co-cultured with HepG2 cells; experiment: Micronucleus assay in co-culture after pretreatment with inhibitors of metabolic enzymes and efflux transporters; settings: then Las 10 µM, Rid 100 µM, vs no pretreatment
Method: Since the analysis was limited to HeLa H2B-GFP cells in these experiments, cytochalasin B (at final concentration 3 µg/ml) exposure was 20 h.
Transmembrane transporters may enhance or decrease PA-mediated effects. […] The idea was that metabolites formed in hepatocytes may not reach HeLa H2B-GFP cells to the same extent. […] Then, the co-culture was exposed to PAs for 28 h, followed by 3 µg/ml cytochalasin B for 20 h.

DNA [10] = test system: DNA; design: method as in Hincks et al. [1991]; settings: ref Hincks et al. [1991]; cited from earlier work
V79 hamster cells = settings: metabolically incompetent V79 cells with or without human CYP450-3A4; ref Ebmeyer et al. [(2019]); cited from earlier work
HSEC = settings: PAs metabolized by HepaRG human hepatocyte cells in Transwell co-culture; ref Lu et al. [2019]; cited from earlier work

T1 sequence (Q92887 whole entry): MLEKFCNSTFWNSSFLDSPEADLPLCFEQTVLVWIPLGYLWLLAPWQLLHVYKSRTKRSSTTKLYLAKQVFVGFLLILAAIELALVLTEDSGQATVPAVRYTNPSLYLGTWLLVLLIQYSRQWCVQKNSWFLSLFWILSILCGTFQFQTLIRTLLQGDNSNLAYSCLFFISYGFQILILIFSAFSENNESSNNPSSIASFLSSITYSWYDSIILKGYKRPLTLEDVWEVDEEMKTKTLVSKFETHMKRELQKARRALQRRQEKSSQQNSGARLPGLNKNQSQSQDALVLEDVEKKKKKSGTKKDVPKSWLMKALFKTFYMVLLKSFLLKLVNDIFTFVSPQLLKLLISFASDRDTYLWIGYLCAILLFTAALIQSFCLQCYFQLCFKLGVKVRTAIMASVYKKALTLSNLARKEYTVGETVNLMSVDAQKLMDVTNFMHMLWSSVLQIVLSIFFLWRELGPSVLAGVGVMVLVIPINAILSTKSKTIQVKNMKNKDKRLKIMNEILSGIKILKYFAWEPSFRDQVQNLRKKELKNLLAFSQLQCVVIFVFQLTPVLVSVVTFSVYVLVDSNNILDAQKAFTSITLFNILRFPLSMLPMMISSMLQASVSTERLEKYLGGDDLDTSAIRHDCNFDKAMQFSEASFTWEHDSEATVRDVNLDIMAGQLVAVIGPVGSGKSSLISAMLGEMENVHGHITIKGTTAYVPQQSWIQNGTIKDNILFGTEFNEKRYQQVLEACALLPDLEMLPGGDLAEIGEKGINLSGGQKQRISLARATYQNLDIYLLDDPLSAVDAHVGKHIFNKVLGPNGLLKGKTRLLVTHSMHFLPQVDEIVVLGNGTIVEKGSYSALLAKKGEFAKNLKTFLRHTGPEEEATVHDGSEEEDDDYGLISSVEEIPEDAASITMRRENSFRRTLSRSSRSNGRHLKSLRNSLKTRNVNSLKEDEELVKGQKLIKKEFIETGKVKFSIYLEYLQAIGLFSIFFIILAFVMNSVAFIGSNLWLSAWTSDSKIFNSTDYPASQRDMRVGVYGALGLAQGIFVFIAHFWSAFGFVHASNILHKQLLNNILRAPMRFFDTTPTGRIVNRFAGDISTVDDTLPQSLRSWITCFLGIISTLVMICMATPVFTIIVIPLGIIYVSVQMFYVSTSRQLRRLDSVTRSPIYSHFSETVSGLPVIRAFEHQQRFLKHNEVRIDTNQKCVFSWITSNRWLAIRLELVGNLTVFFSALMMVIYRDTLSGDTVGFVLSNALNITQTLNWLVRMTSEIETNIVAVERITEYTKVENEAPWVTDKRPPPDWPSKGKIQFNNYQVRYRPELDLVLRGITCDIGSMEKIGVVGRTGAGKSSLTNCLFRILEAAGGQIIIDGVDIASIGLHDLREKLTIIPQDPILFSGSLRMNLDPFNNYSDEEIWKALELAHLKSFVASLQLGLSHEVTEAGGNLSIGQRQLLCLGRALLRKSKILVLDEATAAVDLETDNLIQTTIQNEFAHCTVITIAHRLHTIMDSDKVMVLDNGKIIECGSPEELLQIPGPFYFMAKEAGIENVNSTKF

## COC(C)C(O)(C(=O)OCC1=CCN2CCC(O)C12)C(C)(C)O (centres unmarked) [europine]
HeLa H2B-GFP cells [1]
  micronucleus formation in HeLa H2B-GFP cells cultured alone: not if cultured alone
[2]
  micronucleus formation in HeLa H2B-GFP cells in the co-culture: induced micronucleus formation significantly
HepG2 cells [3]
  mitotic index in HepG2 cells: significantly decreased
DNA [4]
  induction of DNA cross-links: did not
HeLa H2B-GFP cells [5]
  mitotic index in HeLa H2B-GFP cells cultured alone: no change
HepG2 cells [6]
  micronucleus induction in HepG2 cells cultured alone: induced micronuclei
[7]
  mitotic index in co-culture: significantly decreased
  arrest in metaphase of mitosis (detectable as elevated mitotic index): not
[7]; in 300 mitotic cells, Ep 160 µM compared with Las 10 µM and Rid 100 µM, concentrations causing a similar number of micronuclei
  ana-/telophase bridges: less ana-/telophase bridges than the two diesters

## CC(C)[C@](O)(C(=O)OCC1=CCN2CC[C@@H](O)[C@@H]12)[C@@H](C)O (stereo in doubt) [lycopsamine]
[8]
  interference with cell cycle regulation and DNA damage repair: interfered with cell cycle regulation and DNA damage repair

## CCc1oc2ccccc2c1C(=O)c1cc(Br)c(O)c(Br)c1 [benzbromarone]
MRP2 efflux transporter
  activity of MRP2 efflux transporter (calcein fluorescence retention): significantly reduced
[9]; verapamil 50 µM, benzbromarone 10 µM or both, 24 h pretreatment, Ep 160 µM for 28 h
  lasiocarpine-, riddelliine- and europine-induced micronucleus formation in HeLa H2B-GFP cells after efflux transporter inhibitor pretreatment: significantly reduced

## C=C1C/C(=C/C)C(=O)O[C@@H]2CCN3CC=C(COC(=O)[C@@]1(O)CO)[C@H]23 [riddelliine]
HeLa H2B-GFP cells [1]
  micronucleus formation in HeLa H2B-GFP cells cultured alone: not if cultured alone
DNA [10]
  DNA cross-linker potency: more potent DNA cross-linker than heliosupine
[2]
  micronucleus formation in HeLa H2B-GFP cells in the co-culture: induced micronucleus formation significantly
HepG2 cells [3]
  mitotic index in HepG2 cells: did not cause significant alterations
HeLa H2B-GFP cells [5]
  mitotic index in HeLa H2B-GFP cells cultured alone: did not cause significant alterations
[8]
  interference with cell cycle regulation and DNA damage repair: interfered with cell cycle regulation and DNA damage repair
HepG2 cells [6]
  micronucleus induction in HepG2 cells cultured alone: induced micronuclei
[7]
  mitotic index in co-culture: did not cause significant alterations
  arrest in metaphase of mitosis (detectable as elevated mitotic index): not

## CC(=O)N1CCN(c2ccc(OCC3COC(Cn4ccnc4)(c4ccc(Cl)cc4Cl)O3)cc2)CC1 (centres unmarked) [ketoconazole]
[9]; ketoconazole 1 µM 24 h pretreatment, Ep 320 µM for 28 h
  lasiocarpine-, riddelliine- and europine-induced micronucleus formation after CYP450-3A4 inhibitor pretreatment: significantly reduced

## CC[C@]1(O)C[C@H]2CN(CCc3c([nH]c4ccccc34)[C@@](C(=O)OC)(c3cc4c(cc3OC)N(C=O)[C@H]3[C@@](O)(C(=O)OC)[C@H](OC(C)=O)[C@]5(CC)C=CCN6CC[C@]43[C@@H]65)C2)C1 [vincristine, reference compound]
[7]
  arrest in metaphase of mitosis (detectable as elevated mitotic index): arrest in metaphase of mitosis

## C/C=C(/C)C(=O)O[C@H]1CCN2CC=C(COC(=O)[C@@](O)([C@H](C)OC)C(C)(C)O)[C@H]12 [lasiocarpine]
V79 hamster cells
  genotoxicity in V79 hamster cells: only genotoxic in metabolically incompetent V79 hamster cells if they had been genetically engineered to harbour human CYP450-3A4
[8]
  interference with cell cycle regulation and DNA damage repair: interfered with cell cycle regulation and DNA damage repair

## C/C=C(/C)C(=O)O[C@@H]1CCN2CC=C(COC(=O)[C@@](O)([C@H](C)O)C(C)(C)O)[C@H]12 [echimidine]
[8]
  interference with cell cycle regulation and DNA damage repair: interfered with cell cycle regulation and DNA damage repair

## C=C/C1=C/[C@H](C)[C@](C)(OC(C)=O)C(=O)OC/C2=C/CN(C)CC[C@@H](OC1=O)C2=O [clivorine]
HSEC
  cytotoxicity in HSEC: concentration-dependent cytotoxicity

## C[C@H]1C(=O)O[C@@H]2CCN3CC=C(COC(=O)[C@](C)(O)[C@]1(C)O)[C@H]23 [monocrotaline]
HSEC
  cytotoxicity in HSEC: concentration-dependent cytotoxicity
[8]
  interference with cell cycle regulation and DNA damage repair: interfered with cell cycle regulation and DNA damage repair
